Reference: patent US20240148821A1, “PHARMACEUTICAL USE OF CYCLIC PEPTIDE COMPOUND” (CHUGAI SEIYAKU KABUSHIKI KAISHA, priority 2021, published 2024)
Numbered stars: 1 amine (or outer) side, 2 acyl side, 3 side chain; on linkers, the order of the positions; unused ones are H or OH. Bridge positions count the residues as written; N and C are the ends. Square brackets hold non-standard residues; d marks the D form. Peptide text beside a SMILES is read from it. * marks the point of attachment. hPhe(3,5-F2-4-CF3) = N[C@@H](CCc1cc(F)c(C(F)(F)F)c(F)c1)C(=O)O; hPhe(3-Cl-4-CF3) = N[C@@H](CCc1ccc(C(F)(F)F)c(Cl)c1)C(=O)O; hPhe(3-F,4-CF3) = N[C@@H](CCc1ccc(C(F)(F)F)c(F)c1)C(=O)O; NMePhe(4-CF3) = CN[C@@H](Cc1ccc(C(F)(F)F)cc1)C(=O)O; NMeAla(4-thiazolyl) = CN[C@@H](Cc1cscn1)C(=O)O; X36 = O=C([C@H](Cc1cc(F)cc(Cl)c1)N[*:1])[*:2]; NMeAbu(4,4,4-F3) = CN[C@@H](CC(F)(F)F)C(=O)O; NMePhe(4-Cl) = CN[C@@H](Cc1ccc(Cl)cc1)C(=O)O; NMePhe(4-Me) = CN[C@@H](Cc1ccc(C)cc1)C(=O)O; NMeGly(cPent) = CN[C@H](C(=O)O)C1CCCC1; Phe(3-I) = N[C@@H](Cc1cccc(I)c1)C(=O)O; Pro(4,4-F2) = O=C(O)[C@@H]1CC(F)(F)CN1; Phe(2-F) = N[C@@H](Cc1ccccc1F)C(=O)O; NMeY = CN[C@@H](Cc1ccc(O)cc1)C(=O)O; NMeCha = CN[C@@H](CC1CCCCC1)C(=O)O; N(isopentyl)Gly = CC(C)CCNCC(=O)O; NMeChg = CN[C@H](C(=O)O)C1CCCCC1; NMeI = CC[C@H](C)[C@H](NC)C(=O)O; NMeD = CN[C@@H](CC(=O)O)C(=O)O; NMeL = CN[C@@H](CC(C)C)C(=O)O; dNMeAbu = CC[C@@H](NC)C(=O)O; NMeV = CN[C@H](C(=O)O)C(C)C; d(β3hA) = C[C@@H](N)CC(=O)O; Morpholide = C1CN(*)CCO1; NMeA = CN[C@@H](C)C(=O)O; NMeAib = CNC(C)(C)C(=O)O; Nle = CCCC[C@H](N)C(=O)O; Piperidide = C1CCN(*)CC1; Pra = C#CC[C@H](N)C(=O)O; Ac5c = NC1(C(=O)O)CCCC1; Aze = O=C(O)[C@@H]1CCN1; CF3 = FC(F)(F)*; Sar = CNCC(=O)O

These compounds were tested on Human pancreatic cancer cell line AsPC-1 (G12D mutation Kras) (assay: AsPC-1 cell growth inhibition (AsPC-1 CGI)). Conditions: read-out: AsPC-1 cell growth inhibition, 50% growth inhibitory concentration (IC50 value); 96 hours, CellTiter-Glo, values classified in ranges.
Assay type: cell-based
Experimental: Test compounds were serially dilated with dimethyl sulfoxide, and 200 nL was then dispensed to a U-bottom 96-well plate using Labcyte Echo. […] The cell suspension was dispensed to a. plate containing a test compound at 100 μL per well and incubated at 37° C. in a 5% carbon dioxide gas incubator. 96 hours later, 80 μL of CellTiter-Glo (Promega) was added to each well and fluorescence was measured.
Compound `CC[C@H](C)[C@@H]1NC(=O)[C@H](CC(C)C)N(C)C(=O)C[C@@H](C)NC(=O)[C@H](C(C)C)N(C)C(=O)C2(CCCC2)NC(=O)[C@@H]2CCCN2C(=O)[C@H](CCc2ccc(C(F)(F)F)c(Cl)c2)NC(=O)CN(C)C(=O)[C@H](CC2CCCCC2)N(C)C(=O)CN(CCC(C)C)C(=O)CN(C)C1=O` [Compound 801] (cyclo([Ac5c][NMeV][d(β3hA)][NMeL]I[Sar][N(isopentyl)Gly][NMeCha][Sar][hPhe(3-Cl-4-CF3)]P)) has an IC50 of over 500 nM.
`CC[C@H](C)[C@@H]1NC(=O)[C@H](CC(C)C)N(C)C(=O)C[C@@H](C)NC(=O)[C@H](CC(C)C)N(C)C(=O)C2(CCCC2)NC(=O)[C@@H]2CCCN2C(=O)[C@H](CCc2ccc(C(F)(F)F)c(F)c2)NC(=O)CN(C)C(=O)[C@H](CC2CCCCC2)N(C)C(=O)CN(C)C(=O)CN(C)C1=O` [Compound 402] (cyclo([Ac5c][NMeL][d(β3hA)][NMeL]I[Sar][Sar][NMeCha][Sar][hPhe(3-F,4-CF3)]P)) gave an IC50 of over 500 nM.
`CC[C@H](C)[C@@H]1NC(=O)[C@H](CC(C)C)N(C)C(=O)C[C@@H](C(=O)N(C)C)N(C)C(=O)[C@H]([C@@H](C)CC)N(C)C(=O)[C@H](C)NC(=O)[C@H](Cc2cscn2)N(C)C(=O)[C@H](CCc2ccc(C(F)(F)F)c(Cl)c2)NC(=O)CN(C)C(=O)[C@H](Cc2ccc(C)cc2)N(C)C(=O)[C@@H]2CCN2C(=O)[C@H](C)N(C)C1=O` [Compound 856] ([NMeL]I[NMeA][Aze][NMePhe(4-Me)][Sar][hPhe(3-Cl-4-CF3)][NMeAla(4-thiazolyl)]A[NMeI][NMeD]-NMe2; lactam N-11) gave an IC50 of over 500 nM.
With `CC[C@H](C)[C@@H]1NC(=O)[C@H](CC(C)C)N(C)C(=O)C[C@@H](C(=O)N2CCCCC2)N(C)C(=O)[C@H](CC(C)C)NC(=O)C(C)(C)N(C)C(=O)[C@H](Cc2ccccc2F)NC(=O)[C@H](Cc2cccc(I)c2)NC(=O)CN(C)C(=O)[C@H](Cc2ccc(C)cc2)N(C)C(=O)[C@@H]2CCN2C(=O)CN(C)C1=O` [Compound 638] ([NMeL]I[Sar][Aze][NMePhe(4-Me)][Sar][Phe(3-I)][Phe(2-F)][NMeAib]L[NMeD]-Piperidide; lactam N-11) the IC50 was over 500 nM.
`CC[C@@H]1C(=O)NC2(CCCC2)C(=O)N(C)[C@@H](C2CCCC2)C(=O)N(C)[C@H](C(=O)N2CCCCC2)CC(=O)N(C)[C@@H](CC(C)C)C(=O)N[C@@H]([C@@H](C)CC)C(=O)N(C)[C@@H](C)C(=O)N2CC[C@H]2C(=O)N(C)[C@@H](CC2CCCCC2)C(=O)N(C)CC(=O)N[C@@H](CCc2ccc(C(F)(F)F)c(Cl)c2)C(=O)N1C` [Compound 1441] ([NMeL]I[NMeA][Aze][NMeCha][Sar][hPhe(3-Cl-4-CF3)][dNMeAbu][Ac5c][NMeGly(cPent)][NMeD]-Piperidide; lactam N-11) gave an IC50 of over 500 nM.
For `CCCC[C@@H]1NC(=O)[C@H](Cc2cc(F)cc(Cl)c2)NC(=O)CN(C)C(=O)[C@H](Cc2ccc(Cl)cc2)N(C)C(=O)CN(C)C(=O)CN(C)C(=O)[C@H]([C@@H](C)CC)NC(=O)[C@H](CC(C)C)N(C)C(=O)C[C@@H](C(=O)N2CCCCC2)N(C)C(=O)[C@H](CC(C)C)NC(=O)C(C)(C)N(C)C1=O` [Compound 202] ([NMeL]I[Sar][Sar][NMePhe(4-Cl)][Sar][X36][Nle][NMeAib]L[NMeD]-Piperidide; lactam N-11), the IC50 was over 500 nM.
For `CC[C@H](C)[C@@H]1NC(=O)[C@H](CC(F)(F)F)N(C)C(=O)C[C@@H](C(=O)N2CCOCC2)N(C)C(=O)[C@H](C2CCCCC2)N(C)C(=O)C2(CCCC2)NC(=O)[C@@H]2CC(F)(F)CN2C(=O)[C@H](CCc2cc(F)c(C(F)(F)F)c(F)c2)NC(=O)CN(C)C(=O)[C@H](Cc2ccc(C(F)(F)F)cc2)N(C)C(=O)CN(C)C(=O)CN(C)C1=O` [Compound 1260] ([NMeAbu(4,4,4-F3)]I[Sar][Sar][NMePhe(4-CF3)][Sar][hPhe(3,5-F2-4-CF3)][Pro(4,4-F2)][Ac5c][NMeChg][NMeD]-Morpholide; lactam N-11), the IC50 was at most 20 nM.
`C#CC[C@@H]1NC(=O)[C@H](Cc2cccc(I)c2)NC(=O)CN(C)C(=O)[C@H](Cc2ccc(OC(F)(F)F)cc2)N(C)C(=O)[C@@H]2CCN2C(=O)[C@H](C)N(C)C(=O)[C@H]([C@@H](C)CC)NC(=O)[C@H](CC(C)C)N(C)C(=O)C[C@@H](C(=O)N2CCCCC2)N(C)C(=O)[C@H](CC(C)C)NC(=O)C(C)(C)N(C)C1=O` [Compound 1288] ([NMeL]I[NMeA][Aze][NMeY](CF3)[Sar][Phe(3-I)][Pra][NMeAib]L[NMeD]-Piperidide; lactam N-11) was tested, and the IC50 was over 500 nM.
`CC[C@H](C)[C@@H]1NC(=O)[C@H](CC(C)C)N(C)C(=O)C[C@@H](C)NC(=O)[C@H](C2CCCC2)N(C)C(=O)C2(CCCC2)NC(=O)[C@@H](C)NC(=O)[C@H](CCc2ccc(C(F)(F)F)c(Cl)c2)NC(=O)CN(C)C(=O)[C@H](Cc2ccc(C)cc2)N(C)C(=O)[C@@H]2CCN2C(=O)[C@H](C)N(C)C1=O` [Compound 1328] (cyclo([Ac5c][NMeGly(cPent)][d(β3hA)][NMeL]I[NMeA][Aze][NMePhe(4-Me)][Sar][hPhe(3-Cl-4-CF3)][dA])) was tested, and the IC50 was over 500 nM.
